Literature values, collected in patent publication US7834031B2, “Radiolabeled glycine transporter inhibitors” (Merck Sharp & Dohme Corp., priority 2005, dated 2010).

Legend:
[1] = test system: symptoms of schizophrenia; settings: high doses, oral, add-on to standard neuroleptic therapy
pre-pulse inhibition = settings: mice; measure of sensory gating
NMDA receptor activity = settings: rat
[2] = test system: symptoms of schizophrenia; settings: schizophrenia patients poorly responsive to antipsychotic drugs

Compound: NCC(=O)O [glycine]
- symptoms of schizophrenia patients [1]: improvement of the symptoms

Compound: CN(CCC(Oc1ccc(-c2ccccc2)cc1)c1ccc(F)cc1)CC(=O)O (stereo not shown) [NFPS, (N-[3-(4′-fluorophenyl)-3-(4′-phenylphenoxy)propyl])sarcosine]
- pre-pulse inhibition (pre-pulse inhibition): enhance pre-pulse inhibition
- NMDA receptor activity and NMDA receptor-dependent long-term potentiation (NMDA receptor activity): potentiates NMDA receptor activity and NMDA receptor-dependent long-term potentiation

Compound: CNCC(=O)O [sarcosine]
- effect on positive, negative and cognitive symptoms [2]: beneficial effect
